According to PubChem BioAssay (NCI):
Several values for one entry are separate records, joined by “and”; a condition that tells them apart may be missing. Identical values can stand only once.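 Five compound concentrations were applied to cells in 96-well plates for 48 hours; endpoints were derived by simple linear interpolation of the resulting dose-response curve. At the GI50, growth is halved. The concentration for full growth arrest is given as TGI.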

What was measured:
Experiment in all cases: inhibition of tumour cell growth, NCI panel, 48 h
HCC-2998 colon = tested on: HCC-2998 colon
NCI/ADR-RES ovarian = tested on: NCI/ADR-RES ovarian
MCF7 breast = tested on: MCF7 breast
U251 CNS = tested on: U251 CNS
HOP-62 NSCLC = tested on: HOP-62 NSCLC
OVCAR-5 ovarian = tested on: OVCAR-5 ovarian
K-562 leukemia = tested on: K-562 leukemia
HCT-116 colon = tested on: HCT-116 colon
OVCAR-8 ovarian = tested on: OVCAR-8 ovarian
NCI-H522 lung = tested on: NCI-H522 lung

| SMILES | GI50 (HCC-2998 colon) | TGI (HCC-2998 colon) | GI50 (NCI/ADR-RES ovarian) | TGI (NCI/ADR-RES ovarian) | GI50 (MCF7 breast) | TGI (MCF7 breast) | GI50 (U251 CNS) | TGI (U251 CNS) | GI50 (HOP-62 NSCLC) | TGI (HOP-62 NSCLC) | GI50 (OVCAR-5 ovarian) | TGI (OVCAR-5 ovarian) | GI50 (K-562 leukemia) | TGI (K-562 leukemia) | GI50 (HCT-116 colon) | TGI (HCT-116 colon) | GI50 (OVCAR-8 ovarian) | TGI (OVCAR-8 ovarian) | GI50 (NCI-H522 lung) | TGI (NCI-H522 lung) |
| --- | --- | --- | --- | --- | --- | --- | --- | --- | --- | --- | --- | --- | --- | --- | --- | --- | --- | --- | --- | --- |
| Cc1ncc(C(=O)Nc2ccc(CN3CCN(C)CC3)c(C(F)(F)F)c2)cc1C#Cc1c(N)ncc2ccc(C#N)cc12 | 4.96 µM | > 40.9 µM | 5.06 µM | 16.8 µM | 0.693 µM | 11.4 µM | 5.8 µM | 14.4 µM | 0.988 µM | 11.2 µM | 1.25 µM | 10.9 µM | 0.005 µM | 5.3 µM | 0.24 µM | 5.94 µM | 4.77 µM | 21.2 µM | 1.61 µM | 21.7 µM |
| CCCCc1ccc2nc(NC(=O)OC)[nH]c2c1 | 0.0966 µM | 3.4 µM | 0.0311 µM | 0.121 µM | 0.0343 µM | > 52.1 µM | 0.0533 µM | 19.4 µM | 0.126 µM | 26.6 µM | 1.4 µM | > 100 µM | 0.0337 µM | > 100 µM | 0.0482 µM | 13.5 µM | 0.0837 µM | > 52.9 µM | 0.0612 µM | > 68.3 µM |
| Cc1nc2c(cnn2-c2ccnc3c(C(F)(F)F)cccc23)c(=O)o1 | > 100 µM | > 100 µM | > 100 µM | > 100 µM | > 100 µM | > 100 µM | > 100 µM | > 100 µM | > 100 µM | > 100 µM | > 100 µM | > 100 µM | > 100 µM | > 100 µM | > 100 µM | > 100 µM | > 100 µM | > 100 µM | > 100 µM | > 100 µM |
| COc1cc(-c2cc(-c3ccc(N(C)C)cc3)nc(N3CCC(O)CC3)c2C#N)cc(OC)c1OC | 0.54 µM | 6.48 µM | 0.35 µM | > 19.8 µM | 0.626 µM | 3.42 µM | 0.527 µM | 2.83 µM | 0.953 µM | 24.3 µM | 0.459 µM | > 36.3 µM | 0.367 µM | 10.5 µM | 0.287 µM | 1.65 µM | 0.485 µM | > 45.7 µM | 0.338 µM | 1.32 µM |
| Cc1cc(Cl)n2c(nc3ccccc32)c1C#N | 0.727 µM | 2.31 µM | 0.847 µM | 8.74 µM | 0.158 µM | 2.3 µM | 0.482 µM | 3.17 µM | 0.572 µM | 3.45 µM | 0.83 µM | 10.8 µM | 0.256 µM | 61.3 µM | 0.0393 µM | 1.4 µM | 0.597 µM | 11.9 µM | 0.235 µM | 1.22 µM |
| Cn1cc(-c2ccc3cc(-c4ccc(CC(=O)Nc5cc(C(C)(C)C)nn5C)cc4)cnc3c2)cn1 | 0.443 µM | > 100 µM | 0.355 µM | > 100 µM | 0.496 µM | > 100 µM | 0.236 µM | > 100 µM | 0.409 µM | > 100 µM | 0.606 µM | > 100 µM | 0.347 µM | > 100 µM | 0.191 µM | > 100 µM | 0.274 µM | > 100 µM | 0.251 µM | > 100 µM |
| Cc1cc(O)c2c(c1)C[C@@H](O)C1=C2C(=O)c2c(O)ccc(OC3CC(O)C(OC4CC(OC5CCC(OC6CC(O)C(OC7CC(OC8CCC(O)C(C)O8)C(O)C(C)O7)C(C)O6)C(C)O5)C(O)C(C)O4)C(C)O3)c2C1=O (some centres undefined) | 1.76 µM and 1.45 µM |  | 3.01 µM and 1.8 µM |  | 0.394 µM and 0.921 µM | 0.599 µM and 1.69 µM and 2.32 µM | 0.469 µM and 0.306 µM |  | 1.97 µM and 2.76 µM |  | 1.88 µM and 0.666 µM |  | 0.144 µM | 0.267 µM and 0.457 µM | 0.38 µM and 0.281 µM |  | 0.364 µM |  | 0.0888 µM and 0.176 µM | 0.0534 µM and 0.217 µM and 0.415 µM |
| Nc1nc2nc3c(nc2c(=O)[nH]1)CN(c1ccc(C(=O)O)cc1)C3=O |  | > 100 µM |  | > 100 µM |  | > 100 µM |  | > 100 µM |  | 83.7 µM |  | > 100 µM |  | > 100 µM |  | > 100 µM |  | > 100 µM |  | > 100 µM |
| Clc1ccc(Cl)c(N/N=C\c2c[nH]c3ccccc23)c1 | 13.6 µM | 29.9 µM | 15.6 µM | 34.8 µM | > 100 µM | > 100 µM | 22 µM | > 100 µM | 15.2 µM | 28.4 µM | 17.3 µM | 36.9 µM | 1.83 µM | 17.7 µM | 14.8 µM | 27.9 µM | 14.9 µM | 29.4 µM | 1.78 µM | 14.8 µM |
| COc1ccc(C(=O)/C=C/c2ccc(Cl)cc2)cc1S(N)(=O)=O | 1.78 µM | 3.65 µM | 3.64 µM | 24 µM | 1.3 µM | 6.77 µM | 1.96 µM | 4.27 µM | 2.51 µM | 8.62 µM | 3.08 µM | 13.8 µM | 0.568 µM | > 100 µM | 1.36 µM | 2.7 µM | 3.55 µM | 10.2 µM | 1.93 µM | 4.51 µM |
| C=C1C(=O)OC(CCCCCCCC)C1C(=O)O (centres undefined) | 17.5 µM | 31.4 µM | 21.6 µM | 59.7 µM | 12.6 µM | 26.5 µM | 15.6 µM | 29.4 µM | 20.5 µM | 39.1 µM | 17 µM | 31.8 µM | 27.9 µM | > 75.8 µM | 11.9 µM | 26.2 µM | 19.4 µM | 45.9 µM | 7.57 µM | 20.1 µM |
| O=C(Nc1ccc(Cl)c(Cl)c1)Nc1ccc(Cl)c([N+](=O)[O-])c1 | 1.22 µM | 4.58 µM | 1.02 µM | 6.09 µM | 0.795 µM | 8.32 µM | 1.13 µM | 4.3 µM | 2.06 µM | 6.04 µM | 2.79 µM | 9.29 µM | 1.06 µM | 19 µM | 0.813 µM | 3.18 µM | 1.44 µM | 8.91 µM | 0.996 µM | 4.9 µM |
| N#Cc1c(N)nn(C(=O)c2ccc(NC(=O)c3ccccn3)cc2)c1-c1ccc(Cl)cc1 | 3.68 µM | > 100 µM | 4.09 µM | > 100 µM | 2.71 µM | > 100 µM | 2.33 µM | 5.75 µM | 2.53 µM | 8.37 µM | 8.65 µM | > 100 µM | 6.62 µM | > 100 µM | 3.32 µM | > 100 µM | 3.38 µM | 17.7 µM | 4.52 µM | > 100 µM |
| Cc1ccc(CCC(=O)Nc2ncc(Cc3cc(Cl)ccc3Cl)s2)o1 | 0.312 µM | 6.41 µM | 0.159 µM | 1.41 µM | 0.0439 µM | > 100 µM | 0.202 µM | 3.39 µM | 0.38 µM | 15.1 µM | 0.455 µM | 14.1 µM | 0.0401 µM | > 100 µM | 0.0696 µM | 2.14 µM | 0.432 µM | > 26.1 µM | 0.229 µM | 12.9 µM |
| [O-][n+]1onc2c3nn(-c4ccccc4)nc3ccc21 |  | 44.9 µM |  | > 100 µM |  | > 100 µM |  | > 100 µM |  | > 100 µM |  | > 100 µM |  | > 100 µM |  | > 100 µM |  | > 100 µM |  | > 100 µM |
| O=C1CCCC1C(=O)Nc1ccc2ccccc2c1 (centres undefined) |  | > 100 µM |  | > 100 µM |  | > 100 µM |  | > 100 µM |  | > 100 µM |  | > 100 µM |  | > 100 µM |  | > 100 µM |  | > 100 µM |  | > 100 µM |
| COc1ccc(CN2CCc3c(Cl)nc(N)nc3C2=O)c(OC)c1 | 17.3 µM | 31.6 µM | 27.2 µM | 87 µM | 15.7 µM | 61.3 µM | 14.6 µM | 27.9 µM | 25.7 µM | 63.9 µM | 21.1 µM | 46.7 µM | 2.46 µM | 37.7 µM | 16.1 µM | 29.9 µM | 26.9 µM | > 100 µM | 12.7 µM | 30.9 µM |
| CC(=O)O[C@@H]1C=CC(=O)C2(CC(=O)O[C@@H]2/C=C(\C)CCC=C(C)C)C1 (some centres undefined) | 0.601 µM | 1.99 µM | 0.223 µM | 0.827 µM | 0.0772 µM | 0.599 µM | 0.82 µM | 2.07 µM | 1.36 µM | 3.4 µM | 0.267 µM | 1.08 µM | 0.449 µM |  | 0.399 µM | 1.71 µM | 0.35 µM | 1.81 µM | 0.988 µM |  |
| C#Cc1cccc(NC(=O)Nc2ccccc2NC(=O)CCl)c1 | 15.3 µM | 29.8 µM | 23.4 µM | 75.5 µM | 16.6 µM | > 82.5 µM | 15.4 µM | 33.1 µM | 25.9 µM | > 82.5 µM | 17.4 µM | 41.9 µM | 22.8 µM | > 82.5 µM | 24.5 µM | > 82.5 µM | 27.1 µM | > 82.5 µM | 20.8 µM | 71.5 µM |
| FC(F)(F)c1ccc2nc(-c3nc(-c4ccccc4)n4ccccc34)[nH]c2c1 | 5.98 µM | 22.4 µM | 3.71 µM | 38.5 µM | 2.4 µM | 21 µM | 1.98 µM | 4.03 µM | 2.46 µM | 9.26 µM | 6.77 µM | 47.2 µM | 11 µM | > 100 µM |  |  | 2.7 µM | 7.68 µM | 2.99 µM | 9.88 µM |
